Where two headings read alike, the source gives them in different places.
Key:
[1] = target: T1, porcine pancreatic elastase (PPE) (Sus scrofa, UniProt P00772); test: Inactivation of porcine pancreatic elastase (PPE); type: biochemical; conditions: for kinact/KI: read-out: kobs/[I]
T1 construct: from tissue; host or cells: porcine pancreas (from the name)
Protocol: (§1) Inactivation rates of serine proteases by substituted isocoumarins were measured by the incubation method. An aliquot of inhibitor (25 or 50 μl) in Me2 SO was added to a buffered enzyme solution (0.01-2.3 μM) to initiate the inactivation. Aliquots (50 μl) were withdrawn at various intervals and the residual enzymatic activity was measured. Me2 SO concentration in the reaction mixture was 8-12% (v/v). 0.1 Hepes, 0.01M CaCl2, pH 7.5 buffer was utilized for trypsin and coagulation enzymes. 0.1M Hepes, 0.5M NaCl, pH 7.5 was utilized for other serine proteases. […] Peptide thioesters or peptide nitroanilides with appropriate sequence were used as substrates for various serine proteases. All peptide thioester hydrolysis rates were measured with assay mixtures containing 4,4'-dithiodipyridine (ε324 =19800M^-1 cm^-1 ; Grasetti & Murray, Arch. Biochem. Biophys. 119, pp 41-49 (1967)). Peptide 4-nitroanilide nitroanilide hydrolysis was measured at 410 nm (ε410 =8800M^-1 cm^-1 ; Erlanger et al., Arch. Biochem. Biophys. 95, pp 271-278 (1961)). First order inactivation rate constant (kobs) were obtained from plots of ln (vt /vo) vs time, and the correlation coefficients were greater than 0.98.
(§2) ^a Inactivation rates were measured at 0.1M Hepes, 0.5 NaCl, pH 7.5,
(§3) 8-12% Me2 SO and 25° C. by incubation method.
(§4) ^a Inhibition rates were measured in 0.1M Hepes, 0.05M NaCl, pH 7.5
buffer, 8-9% Me2 SO and at 25° C.
(§5) ^a Inhibition constants were in 0.1M Hepes, 0.5M NaCl, pH 7.5 buffer,
8-9% Me2 SO and at 25° C.
(§6) ^a Inhibition rates were measured in 0.1M Hepes, 0.5M NaCl, 2.5%
Me2 SO, pH 7,5 and at 25° C.
(§7) ^a Inhibition was measured in 0.1M Hepes, 0.5M NaCl, pH 7.5 buffer,
(§8) 5-10% Me2 SO and at 25° C. Suc--Val--Pro--Phe--NA (0.48 mM)
(§9) was used as the substrate for chymotrypsin and cat G.
(§10) ^a Inhibition rates were measured in 0.1M Hepes, 0.5M NaCl, pH 7.5

cathepsin G = target: T2, cathepsin G (Homo sapiens, UniProt P08311); test: Inactivation of cathepsin G; type: biochemical; set-up: percentage of inhibition: concentration or dose not given beside the values; conditions: for kinact/KI: read-out: kobs/[I]; for percentage of inhibition: after 5 min incubation
T2 construct: from tissue; host or cells: human leukocytes
T2 sequence (P08311 21-255): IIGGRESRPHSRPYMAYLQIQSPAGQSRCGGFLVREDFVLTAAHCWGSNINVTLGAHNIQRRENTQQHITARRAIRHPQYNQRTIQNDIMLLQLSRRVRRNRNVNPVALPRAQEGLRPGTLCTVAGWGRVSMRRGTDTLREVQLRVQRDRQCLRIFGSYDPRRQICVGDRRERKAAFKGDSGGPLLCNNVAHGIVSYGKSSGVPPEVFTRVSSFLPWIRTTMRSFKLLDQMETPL

chymotrypsin = chymotrypsin (Bos taurus, UniProt P00766); test: Inactivation of chymotrypsin; type: biochemical, bovine
[2] = target: T3, human leukocyte elastase (HLE) (Homo sapiens, UniProt P08246); test: Inactivation of human leukocyte elastase (HLE); type: biochemical
T3 construct: from tissue; host or cells: human leukocytes (from the name)
T3 sequence (P08246 30-267): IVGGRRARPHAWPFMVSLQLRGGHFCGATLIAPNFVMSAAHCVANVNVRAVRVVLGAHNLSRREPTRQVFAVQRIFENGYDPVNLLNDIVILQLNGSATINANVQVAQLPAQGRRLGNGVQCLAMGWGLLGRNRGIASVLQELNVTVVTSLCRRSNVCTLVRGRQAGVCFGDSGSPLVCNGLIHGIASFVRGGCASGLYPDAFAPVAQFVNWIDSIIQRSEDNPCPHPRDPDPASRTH
Protocol: as §1, §2, §3, §4
buffer, 8-9% Me2 SO and at 25° C.
as §5
8-9% Me2 SO and at 25° C.
as §6
Me2 SO, pH 7,5 and at 25° C.
as §7, §8, §9, §10

[3] = Table XVI, pH 7.5, 25° C, [I] 0.04-2.0 mM
[4] = Table XVI, pH 7.5, 25° C, [I] 35-710 μM
[5] = pH 7.5, Table XVI, second order, equimolar inhibitor and enzyme, read-out: kobs/[I]
[6] = pH 7.5, Table XVI, biphasic plot, read-out: kobs/[I] (biphasic, first value)
[7] = pH 7.5, Table XVI, biphasic plot, read-out: kobs/[I] (biphasic, second value)
[8] = Table XVI, pH 7.5, 25° C, [I] 1.7-58 μM, read-out: kobs/[I]
[9] = Table XVI, pH 7.5, 25° C, [I] 0.07-710 μM, read-out: kobs/[I]
[10] = pH 7.5, Table XII, 2.5% Me2SO, 25° C, [I] 34-56 μM
[11] = pH 7.5, Table XII, 2.5% Me2SO, 25° C, [I] 8.7-87 μM
[12] = pH 7.5, Table XII, 2.5% Me2SO, 25° C, [I] 3.4-70 μM, read-out: kobs/[I]
[13] = pH 7.5, Table XII, 2.5% Me2SO, 25° C, [I] 0.7-1.9 μM, read-out: kobs/[I]

T1 sequence (P00772 27-266): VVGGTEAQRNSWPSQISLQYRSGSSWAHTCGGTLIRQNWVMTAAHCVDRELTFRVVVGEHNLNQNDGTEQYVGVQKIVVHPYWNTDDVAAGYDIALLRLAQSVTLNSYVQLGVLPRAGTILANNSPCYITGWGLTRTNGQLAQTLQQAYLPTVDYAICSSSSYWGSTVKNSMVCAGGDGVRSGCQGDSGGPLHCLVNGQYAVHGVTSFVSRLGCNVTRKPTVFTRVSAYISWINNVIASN

Row | kinact/KI [1, 3] | kinact/KI (cathepsin G; [4]) | kinact/KI [2, 5] | kinact/KI (chymotrypsin; [8]) | SMILES | also measured
1 | 1250 M⁻¹ s⁻¹ | 200 M⁻¹ s⁻¹ | > 480000 M⁻¹ s⁻¹ |  | O=c1oc(OCCBr)c(Cl)c2ccc(NC(=S)Nc3ccccc3)cc12 [7-phenylthiocarbamoylamino-4-chloro-3-(2-bromoethoxy)isocoumarin] | kinact/KI (chymotrypsin; [5]): 39000 M⁻¹ s⁻¹
2 | 4470 M⁻¹ s⁻¹ | 77 M⁻¹ s⁻¹ | 646000 M⁻¹ s⁻¹ |  | CC(C)NC(=O)Nc1ccc2c(Cl)c(OCCBr)oc(=O)c2c1 [7-isopropylcarbamoylamino-4-chloro-3-(2-bromoethoxy)isocoumarin] | kinact/KI (chymotrypsin; [6]): 1340 M⁻¹ s⁻¹; kinact/KI (chymotrypsin; [7]): 380 M⁻¹ s⁻¹
3 | 30 M⁻¹ s⁻¹ |  |  | 150 M⁻¹ s⁻¹ | CC(C)(C)OC(=O)N[C@H](Cc1ccccc1)C(=O)Nc1ccc2c(Cl)c(OCCBr)oc(=O)c2c1 [7-(N-t-butyloxycarbonyl-D-phenylalanyl)amino-4-chloro-3-(2-bromoethoxy)isocoumarin] | percentage of inhibition (cathepsin G; Table XVI): 19%
4 | 4.3 M⁻¹ s⁻¹ | 61 M⁻¹ s⁻¹ |  | 375 M⁻¹ s⁻¹ | CCCOc1oc(=O)c2cc(N)ccc2c1Cl [7-amino-4-chloro-3-propoxyisocoumarin] | kinact/KI [2, 9]: 390 M⁻¹ s⁻¹
5 | 28 M⁻¹ s⁻¹ |  |  |  | O=C(Cc1ccccc1)Nc1ccc2c(Cl)c(OCCCBr)oc(=O)c2c1 [7-phenylacetylamino-4-chloro-3-(3-bromopropoxy)isocoumarin] | percentage of inhibition (cathepsin G; Table XVI): 28%; kinact/KI (chymotrypsin; [5]): 140000 M⁻¹ s⁻¹; kinact/KI [2, 9]: 32400 M⁻¹ s⁻¹
6 |  |  |  |  | CCCOc1oc(=O)c2cc(NC(=O)OCC)ccc2c1Cl [7-ethoxycarbonylamino-4-chloro-3-propyloxyisocoumarin] | kinact/KI [1, 10]: 1600 M⁻¹ s⁻¹; kinact/KI (cathepsin G; [11]): 138 M⁻¹ s⁻¹; kinact/KI (chymotrypsin; [12]): 5200 M⁻¹ s⁻¹; kinact/KI [2, 13]: > 181000 M⁻¹ s⁻¹
7 | 9900 M⁻¹ s⁻¹ | 77 M⁻¹ s⁻¹ | > 440000 M⁻¹ s⁻¹ |  | C[C@@H](NC(=O)Nc1ccc2c(Cl)c(OCCBr)oc(=O)c2c1)c1ccccc1 [7-(R-α-methylbenzyl)carbamoylamino-4-chloro-3-(2-bromoethoxy)isocoumarin] | kinact/KI (chymotrypsin; [6]): 180 M⁻¹ s⁻¹; kinact/KI (chymotrypsin; [7]): 90 M⁻¹ s⁻¹
8 | 3010 M⁻¹ s⁻¹ |  | 480000 M⁻¹ s⁻¹ | 890 M⁻¹ s⁻¹ | O=C(NCc1ccccc1)Nc1ccc2c(Cl)c(OCCBr)oc(=O)c2c1 [7-benzylcarbamoylamino-4-chloro-3-(2-bromoethoxy)isocoumarin] | percentage of inhibition (cathepsin G; Table XVI): 23%
9 |  | 450 M⁻¹ s⁻¹ | > 390000 M⁻¹ s⁻¹ | 1720 M⁻¹ s⁻¹ | O=C(O)c1ccc(NC(=S)Nc2ccc3c(Cl)c(OCCBr)oc(=O)c3c2)cc1 [7-(p-carboxyphenyl)thiocarbamoylamino-4-chloro-3-(2-bromoethoxy)isocoumarin] | 
10 | 4950 M⁻¹ s⁻¹ | 70 M⁻¹ s⁻¹ | 480000 M⁻¹ s⁻¹ |  | O=C(Cc1ccccc1)Nc1ccc2c(Cl)c(OCCBr)oc(=O)c2c1 [7-phenylacetylamino-4-chloro-3-(2-bromoethoxy)isocoumarin] | kinact/KI (chymotrypsin; [5]): 82000 M⁻¹ s⁻¹
11 |  |  |  |  | CCCOc1oc(=O)c2cc(NC(=O)CCc3ccccc3)ccc2c1Cl [7-dihydrocinnamoylamino-4-chloro-3-propyloxyisocoumarin] | kinact/KI [1, 10]: 220 M⁻¹ s⁻¹; kinact/KI (cathepsin G; [11]): 20 M⁻¹ s⁻¹; kinact/KI (chymotrypsin; [12]): 12000 M⁻¹ s⁻¹; kinact/KI [2, 13]: > 250000 M⁻¹ s⁻¹
12 | 76 M⁻¹ s⁻¹ |  | 390000 M⁻¹ s⁻¹ | 80 M⁻¹ s⁻¹ | O=C(Nc1ccc2c(Cl)c(OCCBr)oc(=O)c2c1)Nc1cccc2ccccc12 [7-naphthylcarbamoylamino-4-chloro-3-(2-bromoethoxy)isocoumarin] | percentage of inhibition (cathepsin G; Table XVI): 22%
13 | 1000 M⁻¹ s⁻¹ | 410 M⁻¹ s⁻¹ |  | 1160 M⁻¹ s⁻¹ | Nc1ccc2c(Cl)c(OCCBr)oc(=O)c2c1 [7-amino-4-chloro-3-(2-bromoethoxy)isocoumarin] | kinact/KI ([2]; pH 7.5, Table XVI, progress curve method, read-out: kobs/[I]): 200000 M⁻¹ s⁻¹
14 | 10 M⁻¹ s⁻¹ | 210 M⁻¹ s⁻¹ |  | 790 M⁻¹ s⁻¹ | Nc1ccc2c(Cl)c(OCCCBr)oc(=O)c2c1 [7-amino-4-chloro-3-(3-bromopropoxy)isocoumarin] | kinact/KI [2, 9]: 4000 M⁻¹ s⁻¹
15 | 62 M⁻¹ s⁻¹ | 150 M⁻¹ s⁻¹ |  | 320 M⁻¹ s⁻¹ | CC(CBr)Oc1oc(=O)c2cc(N)ccc2c1Cl (stereo not shown) [7-amino-4-chloro-3-(2-bromoisopropoxy)isocoumarin] | kinact/KI [2, 9]: 24000 M⁻¹ s⁻¹
16 | 6600 M⁻¹ s⁻¹ | 56 M⁻¹ s⁻¹ |  | 320 M⁻¹ s⁻¹ | CC(C)(C)NC(=O)Nc1ccc2c(Cl)c(OCCBr)oc(=O)c2c1 [7-t-butylcarbamoylamino-4-chloro-3-(2-bromoethoxy)isocoumarin] | 
17 | 13 M⁻¹ s⁻¹ |  |  | 440 M⁻¹ s⁻¹ | O=C(NCc1ccccc1)Nc1ccc2c(Cl)c(OCCCBr)oc(=O)c2c1 [7-benzylcarbamoylamino-4-chloro-3-(3-bromopropoxy)isocoumarin] | percentage of inhibition (cathepsin G; Table XVI): 21%; kinact/KI [2, 9]: 15600 M⁻¹ s⁻¹
18 | 3650 M⁻¹ s⁻¹ | 240 M⁻¹ s⁻¹ |  | 1070 M⁻¹ s⁻¹ | CC(C)(C)CC(=O)Nc1ccc2c(Cl)c(OCCBr)oc(=O)c2c1 [7-t-butylacetylamino-4-chloro-3-(2-bromoethoxy)isocoumarin] | 
19 | 50 M⁻¹ s⁻¹ |  |  | 400 M⁻¹ s⁻¹ | CC(C)(C)OC(=O)N[C@@H](Cc1ccccc1)C(=O)Nc1ccc2c(Cl)c(OCCBr)oc(=O)c2c1 [7-(N-t-butyloxycarbonyl-L-phenylalanyl)amino-4-chloro-3-(2-bromoethoxy)isocoumarin] | percentage of inhibition (cathepsin G; Table XVI): 19%
20 | 4 M⁻¹ s⁻¹ |  |  | 180 M⁻¹ s⁻¹ | O=C(Nc1ccccc1)Nc1ccc2c(Cl)c(OCCCBr)oc(=O)c2c1 [7-phenylcarbamoylamino-4-chloro-3-(3-bromopropoxy)isocoumarin] | percentage of inhibition (cathepsin G; Table XVI): 17%; kinact/KI [2, 6]: 13800 M⁻¹ s⁻¹; kinact/KI [2, 7]: 2890 M⁻¹ s⁻¹
21 |  |  |  |  | CCCOc1oc(=O)c2cc(NC(=O)NCC)ccc2c1Cl [7-ethylcarbamoylamino-4-chloro-3-propyloxyisocoumarin] | kinact/KI [1, 10]: 80 M⁻¹ s⁻¹; kinact/KI (cathepsin G; [11]): 166 M⁻¹ s⁻¹; kinact/KI (chymotrypsin; [12]): 120 M⁻¹ s⁻¹; kinact/KI [2, 13]: > 276000 M⁻¹ s⁻¹
22 |  | 320 M⁻¹ s⁻¹ | > 240000 M⁻¹ s⁻¹ | 1960 M⁻¹ s⁻¹ | O=C(O)c1cccc(NC(=S)Nc2ccc3c(Cl)c(OCCBr)oc(=O)c3c2)c1 [7-(m-carboxyphenyl)thiocarbamoylamino-4-chloro-3-(2-bromoethoxy)isocoumarin] | 
23 |  |  |  |  | CCCOCCOc1oc(=O)c2cc(N)ccc2c1Cl | kobs/[I] [1, 3]: 0.5 M⁻¹ s⁻¹; kobs/[I] (cathepsin G; [4]): 2.6 M⁻¹ s⁻¹; kobs/[I] (chymotrypsin; Table XVI, pH 7.5, 25° C, [I] 1.7-58 μM): 140 M⁻¹ s⁻¹; kobs/[I] ([2]; Table XVI, pH 7.5, 25° C, [I] 0.07-710 μM): 33 M⁻¹ s⁻¹
24 | 24 M⁻¹ s⁻¹ | 170 M⁻¹ s⁻¹ |  | 3980 M⁻¹ s⁻¹ | CC(=O)Nc1ccc2c(Cl)c(OCCCBr)oc(=O)c2c1 [7-acetylamino-4-chloro-3-(3-bromopropoxy)isocoumarin] | kinact/KI [2, 9]: 24400 M⁻¹ s⁻¹
25 | 1060 M⁻¹ s⁻¹ | 1660 M⁻¹ s⁻¹ |  |  | CC(CBr)Oc1oc(=O)c2cc([N+](=O)[O-])ccc2c1Cl (stereo not shown) [7-nitro-4-chloro-3-(2-bromoisopropoxy)isocoumarin] | kinact/KI (chymotrypsin; [5]): 200000 M⁻¹ s⁻¹
26 | 6330 M⁻¹ s⁻¹ | 710 M⁻¹ s⁻¹ |  |  | O=c1oc(OCCBr)c(Cl)c2ccc([N+](=O)[O-])cc12 [7-nitro-4-chloro-3-(2-bromoethoxy)isocoumarin] | kinact/KI (chymotrypsin; [5]): 98000 M⁻¹ s⁻¹; kinact/KI [2, 9]: 65600 M⁻¹ s⁻¹
27 | 2660 M⁻¹ s⁻¹ |  | > 570000 M⁻¹ s⁻¹ | 440 M⁻¹ s⁻¹ | C[C@H](NC(=O)Nc1ccc2c(Cl)c(OCCBr)oc(=O)c2c1)c1ccccc1 [7-(S-α-methylbenzyl)carbamoylamino-4-chloro-3-(2-bromoethoxy)isocoumarin] | percentage of inhibition (cathepsin G; Table XVI): 21%
28 | 1670 M⁻¹ s⁻¹ | 46 M⁻¹ s⁻¹ | 230000 M⁻¹ s⁻¹ |  | C[C@H](NC(=O)OC(C)(C)C)C(=O)N[C@@H](C)C(=O)Nc1ccc2c(Cl)c(OCCBr)oc(=O)c2c1 [7-(N-t-butyloxycarbonyl-L-alanylalanyl)amino-4-chloro-3-(2-bromoethoxy)isocoumarin] | kinact/KI (chymotrypsin; [6]): 2750 M⁻¹ s⁻¹; kinact/KI (chymotrypsin; [7]): 810 M⁻¹ s⁻¹
